Where two headings read alike, the source gives them in different places.
What was measured:
Septoria tritici = assay: Micro titer plate test against Septoria tritici causing leaf blotch on wheat (SEPTTR); format: cell-based; conditions: 0.25 ppm
[1] = tested on: Phakopsora pachyrhizi (F129L); assay: Protective control of soybean rust on soybeans (PHAKPA P2); format: in vivo; conditions: for % PHAKPA (F129L) Disease level, P2 at 4 ppm: protective P2, 4 ppm; for % PHAKPA (F129L) Disease level, P2 at 16 ppm: protective P2, 16 ppm
[2] = tested on: Phakopsora pachyrhizi (F129L); assay: Protective control of soybean rust on soybeans (PHAKPA P6); format: in vivo; conditions: for % PHAKPA (F129L) Disease level, P6 at 4 ppm: protective P6, 4 ppm; for % PHAKPA (F129L) Disease level, P6 at 16 ppm: protective P6, 16 ppm
Leptosphaeria nodorum = assay: Micro titer plate test against Leptosphaeria nodorum causing wheat leaf spots (LEPTNO); format: cell-based; conditions: for activity at 0.063 ppm: Parastagonospora nodorum, 168 h, read-out: Fungal growth (%) LEPTNO
[3] = tested on: Alternaria solani (F129L); assay: Micro titer plate test against Alternaria solani causing early blight (ALTESO F129L); format: cell-based; conditions: relative growth vs compound-free control (100%), 7 days
[4] = tested on: Colletotrichum orbiculare; assay: Micro titer plate test against Colletotrichum orbiculare causing anthracnose (COLLLA); format: cell-based
Pyricularia oryzae = assay: microbe, parasite or virus in culture; format: cell-based
Alternaria solani (wt) = assay: microbe, parasite or virus in culture; format: cell-based
Pyrenophora teres (wt) = assay: Micro titer plate test against Pyrenophora teres causing net blotch on barley (PYRNTE wt); format: cell-based
[5] = tested on: Pyrenophora teres (F129L); assay: Micro titer plate test against Pyrenophora teres causing net blotch on barley (PYRNTE F129L); format: cell-based; conditions: 0.25 ppm, relative growth vs compound-free control (100%), 7 days
Microdochium nivale = format: cell-based
Cercospora sojina = assay: microbe, parasite or virus in culture; format: cell-based; conditions: 168 h, read-out: Fungal growth (%) CERCSO
[6] = relative growth vs compound-free control (100%), 7 days
[7] = protective, inoculation 2 days after spraying, % diseased leaf area
[8] = protective, inoculation six days after spraying, % diseased leaf area
[9] = 0.063 ppm, relative growth vs compound-free control (100%), 7 days

CNC(=O)/C(=N/OC)c1cccc(C)c1CO/N=C(\OC)c1cccc(C(F)(F)F)c1
Fungal growth (%) SEPTTR (Septoria tritici; [6]): 77%

CO/N=C(/C(=O)OC)c1cccc(C)c1CO/N=C(\C)c1ccccc1F [Ex. 1]
PHAKPA (F129L) Disease level (%) P2 at 16 ppm [1, 7]: 28% | % PHAKPA (F129L) Disease level, P2 at 4 ppm ([1]; soybean rust F129L): 80% | % PHAKPA (F129L) Disease level, P2 at 16 ppm ([1]; soybean rust F129L): 27% | PHAKPA (F129L) Disease level (%) P6 at 16 ppm [2, 8]: 47% | % PHAKPA (F129L) Disease level, P6 at 4 ppm ([2]; soybean rust F129L): 90% | % PHAKPA (F129L) Disease level, P6 at 16 ppm ([2]; soybean rust F129L): 56%

CNC(=O)/C(=N/OC)c1cccc(C)c1CO/N=C(\C)c1cccc(C(F)(F)F)c1 [compound 8]
PHAKPA (F129L) Disease level (%) P6 at 4 ppm ([2]; 4 ppm, protective, inoculation six days after spraying, % diseased leaf area): 13% | % PHAKPA (F129L) Disease level, P6 at 4 ppm [2]: 1% | Fungal growth (%) LEPTNO (Leptosphaeria nodorum; [9]): 70% | Fungal growth (%) ALTESO F129L ([3]; 0.016 ppm, listed as Ex. 8): 52%

CO/N=C(/C(=O)OC)c1cccc(C)c1CO/N=C(\C)c1cccc(C(F)(F)F)c1 [compound 9]
PHAKPA (F129L) Disease level (%) P6 at 16 ppm [2, 8]: 4% | % PHAKPA (F129L) Disease level, P6 at 16 ppm [2]: 1%

CO/N=C(/C(=O)OC)c1cccc(C)c1CO/N=C(\C)c1cccc(OC(F)(F)F)c1 [compound 28]
PHAKPA (F129L) Disease level (%) P2 at 16 ppm [1, 7]: 30% | % PHAKPA (F129L) Disease level, P2 at 16 ppm ([1]; soybean rust F129L): 0% | PHAKPA (F129L) Disease level (%) P6 at 16 ppm [2, 8]: 18% | % PHAKPA (F129L) Disease level, P6 at 16 ppm ([2]; soybean rust F129L): 0%

CO/N=C(/C(=O)OC)c1cccc(C)c1CO/N=C(\C)c1cccc(C)c1 [compound 76]
% PHAKPA (F129L) Disease level, P2 at 4 ppm [1]: 35% | PHAKPA (F129L) Disease level (%) P6 at 16 ppm [2, 8]: 0% | % PHAKPA (F129L) Disease level, P6 at 16 ppm [2]: 4% | Fungal growth (%) SEPTTR (Septoria tritici; [6]): 0%

CNC(=O)/C(=N/OC)c1cccc(C)c1CO/N=C(\C)c1cccc(C)c1 [compound 77]
Fungal growth (%) SEPTTR (Septoria tritici): 49% | Fungal growth (%) COLLLA ([4]; 0.063 ppm): 39%

CNC(=O)/C(=N/OC)c1cccc(C)c1CO/N=C(\C)c1cc(F)cc(F)c1 [compound 84]
% PHAKPA (F129L) Disease level, P2 at 4 ppm ([1]; soybean rust F129L): 0% | % PHAKPA (F129L) Disease level, P2 at 16 ppm ([1]; soybean rust F129L): 0% | % PHAKPA (F129L) Disease level, P6 at 4 ppm ([2]; soybean rust F129L): 0% | % PHAKPA (F129L) Disease level, P6 at 16 ppm ([2]; soybean rust F129L): 0% | Fungal growth (%) PYRIOR (Pyricularia oryzae; 0.016 ppm, relative growth vs compound-free control (100%), 7 days): 48% | Fungal growth (%) COLLLA [4]: 33% | Fungal growth (%) LEPTNO (Leptosphaeria nodorum): 60% | Fungal growth (%) ALTESO wt (Alternaria solani (wt)): 43% | Fungal growth (%) ALTEO F129L ([3]; 4 ppm): 39% | Fungal growth (%) PYRNTE wt (Pyrenophora teres (wt)): 39% | Fungal growth (%) PYRNTE F129L [5]: 49% | Fungal growth (%) MONGNI (Microdochium nivale): 32%

CNC(=O)/C(=N/OC)c1cccc(C)c1CO/N=C(\C)c1ccccc1C [compound 127]
% PHAKPA (F129L) Disease level, P2 at 4 ppm ([1]; soybean rust F129L): 90% | % PHAKPA (F129L) Disease level, P2 at 16 ppm ([1]; soybean rust F129L): 44% | % PHAKPA (F129L) Disease level, P6 at 4 ppm ([2]; soybean rust F129L): 93% | % PHAKPA (F129L) Disease level, P6 at 16 ppm ([2]; soybean rust F129L): 62%

CO/N=C(/C(=O)OC)c1cccc(C)c1CO/N=C(\C)c1cccc(Cl)c1 [compound 153]
% PHAKPA (F129L) Disease level, P2 at 4 ppm [1]: 19% | PHAKPA (F129L) Disease level (%) P6 at 16 ppm [2, 8]: 1% | % PHAKPA (F129L) Disease level, P6 at 16 ppm [2]: 5% | Fungal growth (%) SEPTTR (Septoria tritici): 0% | Fungal growth (%) COLLLA ([4]; 0.063 ppm): 55% | Fungal growth (%) LEPTNO (Leptosphaeria nodorum; 0.063 ppm): 55% | Fungal growth (%) PYRNTE wt (Pyrenophora teres (wt); 0.25 ppm): 31%

CNC(=O)/C(=N/OC)c1cccc(C)c1CO/N=C(\C)c1cccc(Cl)c1 [compound 157]
PHAKPA (F129L) Disease level (%) P2 at 4 ppm ([1]; 4 ppm, protective, inoculation 2 days after spraying, % diseased leaf area): 0% | % PHAKPA (F129L) Disease level, P2 at 4 ppm [1]: 1% | % PHAKPA (F129L) Disease level, P6 at 16 ppm [2]: 1% | Fungal growth (%) SEPTTR (Septoria tritici): 20% | Fungal growth (%) COLLLA ([4]; 0.063 ppm): 63% | Fungal growth (%) PYRNTE wt (Pyrenophora teres (wt); 0.25 ppm): 54%

CNC(=O)/C(=N/OC)c1cccc(C)c1CO/N=C(\CC(F)(F)F)c1ccc(F)cc1C [compound 394]
% PHAKPA (F129L) Disease level, P2 at 4 ppm [1]: 9% | % PHAKPA (F129L) Disease level, P2 at 16 ppm [1]: 3% | % PHAKPA (F129L) Disease level, P6 at 4 ppm [2]: 12% | % PHAKPA (F129L) Disease level, P6 at 16 ppm [2]: 2%

C=Cc1cccc(/C(=N\OC)C(=O)NC)c1CO/N=C(\C)c1ccccc1 [compound 400]
% PHAKPA (F129L) Disease level, P2 at 4 ppm [1]: 2% | % PHAKPA (F129L) Disease level, P2 at 16 ppm [1]: 0% | % PHAKPA (F129L) Disease level, P6 at 4 ppm [2]: 8% | % PHAKPA (F129L) Disease level, P6 at 16 ppm [2]: 0%

CNC(=O)/C(=N/OC)c1cccc(C)c1CO/N=C(\C)c1c(Cl)cc(Cl)cc1OC(F)(F)F [compound 428]
% PHAKPA (F129L) Disease level, P2 at 4 ppm [1]: 70% | % PHAKPA (F129L) Disease level, P2 at 16 ppm [1]: 11% | % PHAKPA (F129L) Disease level, P6 at 4 ppm [2]: 83% | % PHAKPA (F129L) Disease level, P6 at 16 ppm [2]: 20%

CO/N=C(/C(=O)OC)c1cccc(C)c1CO/N=C(\SC)c1cccc(C)c1 [drawing 952]
Fungal growth (%) SEPTTR (Septoria tritici; [6]): 61%

CO/N=C(/C(=O)OC)c1cccc(C)c1CO/N=C(/c1cccc(C)c1)C1CC1 [drawing 953]
Fungal growth (%) SEPTTR (Septoria tritici; [6]): 89%

CO/N=C(/C(=O)OC)c1cccc(C)c1CO/N=C(\C)c1cccc(C)c1 [drawing 956, reference compound]
activity at 0.063 ppm (Leptosphaeria nodorum; [9]): 65% | activity at 0.016 ppm (Alternaria solani (wt); Alternaria solani, 168 h, read-out: Fungal growth (%) ALTESO wt): 93% | activity at 0.016 ppm ([3]; Alternaria solani, 168 h, 0.016 ppm, read-out: Fungal growth (%) ALTESO F129L): 81% | activity at 0.25 ppm (Pyrenophora teres (wt); Pyrenophora teres, 168 h, 0.25 ppm, relative growth vs compound-free control (100%), 7 days, read-out: Fungal growth (%) PYRNTE wt): 53% | activity at 4 ppm (Cercospora sojina): 67%

CNC(=O)/C(=N/OC)c1cccc(C)c1CO/N=C(\OC)c1cccc(C)c1 [drawing 959]
Fungal growth (%) SEPTTR (Septoria tritici): 100%

CNC(=O)/C(=N/OC)c1cccc(C)c1CO/N=C(/c1cccc(C)c1)C1CC1 [drawing 960]
Fungal growth (%) SEPTTR (Septoria tritici): 87%

CO/N=C(/C(=O)OC)c1cccc(C)c1CO/N=C(\SC)c1cccc(Cl)c1 [drawing 962]
Fungal growth (%) SEPTTR (Septoria tritici): 39%

CO/N=C(/C(=O)OC)c1cccc(C)c1CO/N=C(/c1cccc(Cl)c1)C1CC1 [drawing 963]
Fungal growth (%) SEPTTR (Septoria tritici): 39%

CNC(=O)/C(=N/OC)c1cccc(C)c1CO/N=C(\SC)c1cccc(Cl)c1 [drawing 968]
Fungal growth (%) SEPTTR (Septoria tritici): 59%

CO/N=C(/C(=O)OC)c1cccc(C)c1CO/N=C(/c1cccc(C)c1)C1CC1 [drawing 973, reference compound]
% PHAKPA (F129L) Disease level, P2 at 4 ppm [1]: 80% | % PHAKPA (F129L) Disease level, P6 at 16 ppm [2]: 37%

CO/N=C(/C(=O)OC)c1cccc(C)c1CO/N=C(\SC)c1cccc(C)c1 [drawing 974, reference compound]
% PHAKPA (F129L) Disease level, P2 at 4 ppm [1]: 60% | % PHAKPA (F129L) Disease level, P6 at 16 ppm [2]: 30%

CNC(=O)/C(=N/OC)c1cccc(C)c1CO/N=C(\OC)c1cccc(C)c1 [drawing 976, reference compound]
% PHAKPA (F129L) Disease level, P6 at 16 ppm [2]: 45%

CNC(=O)/C(=N/OC)c1cccc(C)c1CO/N=C(/c1cccc(C)c1)C1CC1 [drawing 977, reference compound]
% PHAKPA (F129L) Disease level, P2 at 4 ppm [1]: 67% | % PHAKPA (F129L) Disease level, P6 at 16 ppm [2]: 67%

CNC(=O)/C(=N/OC)c1cccc(C)c1CO/N=C(\SC)c1cccc(Cl)c1 [drawing 981, reference compound]
% PHAKPA (F129L) Disease level, P2 at 4 ppm [1]: 20% | % PHAKPA (F129L) Disease level, P6 at 16 ppm [2]: 9%

CO/N=C(/C(=O)OC)c1cccc(C)c1CO/N=C(/c1cccc(Cl)c1)C1CC1 [drawing 983, reference compound]
% PHAKPA (F129L) Disease level, P2 at 4 ppm [1]: 83% | % PHAKPA (F129L) Disease level, P6 at 16 ppm [2]: 87%

CO/N=C(/C(=O)OC)c1cccc(C)c1CO/N=C(\SC)c1cccc(Cl)c1 [drawing 984, reference compound]
% PHAKPA (F129L) Disease level, P2 at 4 ppm [1]: 47% | % PHAKPA (F129L) Disease level, P6 at 16 ppm [2]: 18%

CO/N=C(/C(=O)OC)c1cccc(C)c1CO/N=C(\OC)c1cccc(OC(F)(F)F)c1 [reference compound]
activity at 0.016 ppm (Pyricularia oryzae; Pyricularia oryzae, 168 h, read-out: Fungal growth (%) PYRIOR): 58% | activity at 0.063 ppm (Leptosphaeria nodorum; [9]): 100% | activity at 4 ppm (Cercospora sojina): 56%

CO/N=C(/C(=O)OC)c1cccc(C)c1CO/N=C(\OC)c1cccc(C)c1 [reference compound]
% PHAKPA (F129L) Disease level, P2 at 4 ppm [1]: 83% | % PHAKPA (F129L) Disease level, P6 at 16 ppm [2]: 57%

CO/N=C(/C(=O)OC)c1cccc(C)c1CO/N=C(\OC)c1cccc(C(F)(F)F)c1 [reference compound]
% PHAKPA (F129L) Disease level, P6 at 16 ppm [2]: 23%

CNC(=O)/C(=N/OC)c1cccc(C)c1CO/N=C(\SC)c1cccc(C(F)(F)F)c1 [reference compound]
% PHAKPA (F129L) Disease level, P6 at 4 ppm [2]: 43%
